The results in this text go back to patent US20070027150A1 (priority 2005, published 2007).

pIC50: −log10 of the molar value.

In the first experiment the target is His-tagged N-terminal ATP binding domain (amino acid residues 9-236) of HSP90α (Homo sapiens, UniProt P07900). Kind of experiment: HSP90 inhibitor binding potency: TRF competition binding assay. The note with it: Table I; read-out: Hsp90 IC50 Range. Put shortly:
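His-tagged HSP90α N-domain (residues 9-236) incubated 2 h at room temperature with biotinylated radicicol and increasing compound in 50 mM HEPES, 6 mM MgCl2, 20 mM KCl, 0.1% BSA. Bound tracer captured on streptavidin plates, detected with europium anti-His antibody by time-resolved fluorescence; IC50 derived.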
Take `Cc1nc(N)nc2c1C(=O)CC(c1ccccc1-c1cccc(N(C)C)c1)C2` (centres unmarked) [Compound 93, 2-amino-7-[3′-(dimethylamino)-1,1′-biphenyl-2-yl]-4-methyl-7,8-dihydroquinazolin-5(6H)-one]: the pIC50 – broadly, the IC50 on a negative log10 scale, so that one unit is a factor of ten – is below 5.00.
The same measure, in the same setting: the result for `Cc1nc(N)nc2c1C(=O)CC(c1ccccc1Cc1ccccc1)C2` (centres unmarked) [Compound 14, 2-amino-7-(2-benzyl-phenyl)-4-methyl-7,8-dihydro-6H-quinazolin-5-one] reads above 6.00.
The same measure, in the same setting: the result for `CCOc1ccccc1C1CC(=O)c2c(C)nc(N)nc2C1` (centres unmarked) [Compound 148, 2-amino-7-(2-ethoxy-phenyl)-4-methyl-7,8-dihydro-6H-quinazolin-5-one] reads above 6.00; that for `COc1cccc(-c2ccccc2CO)c1C1CC(=O)c2c(C)nc(N)nc2C1` (centres unmarked) [Compound 106, 2-amino-7-[2′-(hydroxymethyl)-3-methoxy-1,1′-biphenyl-2-yl]-4-methyl-7,8-dihydroquinazolin-5(6H)-one], above 6.00.
The same measure, in the same setting: the result for `COc1cccc(Br)c1C1CC(=O)c2c(C)nc(N)nc2C1` (centres unmarked) [Compound 18, 2-amino-7-(2-bromo-6-methoxy-phenyl)-4-methyl-7,8-dihydro-6H-quinazolin-5-one] reads 5.00 to 6.00; that for `COc1ccc(F)cc1-c1ccccc1C1CC(=O)c2c(C)nc(N)nc2C1` (centres unmarked) [Compound 96, 2-amino-7-(5′-fluoro-2′-methoxy-1,1′-biphenyl-2-yl)-4-methyl-7,8-dihydroquinazolin-5(6H)-one], above 6.00; that for `Cc1nc(N)nc2c1C(=O)CC(c1ccccc1OCCN1CCN(C)CC1)C2` (centres unmarked) [Compound 152, 2-amino-4-methyl-7-{2-[2-(4-methyl-piperazin-1-yl)-ethoxy]-phenyl}-7,8-dihydro-6H-quinazolin-5-one], 5.00 to 6.00.
As for `Cc1nc(N)nc2c1C(=O)CC(c1ccc(F)cc1-c1ccccc1F)C2` (centres unmarked) [Compound 86, 2-amino-7-(5,2′-difluoro-biphenyl-2-yl)-4-methyl-7,8-dihydro-6H-quinazolin-5-one], the pIC50 was above 6.00.
Still for that read-out and setting: as for `Cc1nc(N)nc2c1C(=O)CC(c1ccccc1-c1cnccn1)C2` (centres unmarked) [Compound 31, 2-amino-4-methyl-7-(2-pyrazin-2-ylphenyl)-7,8-dihydroquinazolin-5(6H)-one], the figure is above 6.00; as for `COc1cccc(Oc2ccccc2C2CC(=O)c3c(C)nc(N)nc3C2)n1` (centres unmarked) [Compound 146, 2-amino-7-{2-[(6-methoxypyridin-2-yl)oxy]phenyl}-4-methyl-7,8-dihydroquinazolin-5(6H)-one], above 6.00; as for `Cc1nc(N)nc2c1C(=O)CC(c1ccccc1-c1ccccc1F)C2` (centres unmarked) [Compound 51, 2-amino-7-(2′-fluoro-1,1′-biphenyl-2-yl)-4-methyl-7,8-dihydroquinazolin-5(6H)-one], above 6.00.
As for `Cc1nc(N)nc2c1C(=O)CC(c1ccccc1-c1cccc(C#N)c1)C2` (centres unmarked) [Compound 65, 2′-(2-amino-4-methyl-5-oxo-5,6,7,8-tetrahydroquinazolin-7-yl)-1,1′-biphenyl-3-carbonitrile], the pIC50 is 5.00 to 6.00.
Still for that read-out and setting: the result for `Cc1nc(N)nc2c1C(=O)CC(c1cccnc1C1=CCCCC1)C2` (centres unmarked) [Compound 45, 2-amino-7-(2-cyclohex-1-en-1-ylpyridin-3-yl)-4-methyl-7,8-dihydroquinazolin-5(6H)-one] reads above 6.00.
In the case of `Cc1nc(N)nc2c1C(=O)CC(c1c(-c3cccnc3F)cnn1C)C2` (centres unmarked) [Compound 64, 2-amino-7-[4-(2-fluoro-pyridin-3-yl)-2-methyl-2H-pyrazol-3-yl]-4-methyl-7,8-dihydro-6H-quinazolin-5-one], the pIC50 was 5.00 to 6.00.

Still in this experiment, the particulars now being: Table II; read-out: Hsp90 IC50 Range.
On to `COc1nc(-c2cc(F)ccc2C2CC(=O)c3c(C)nc(N)nc3C2)ncc1F` (centres unmarked) [Compound 224, 2-amino-7-[4-fluoro-2-(5-fluoro-4-methoxy-pyrimidin-2-yl)-phenyl]-4-methyl-7,8-dihydro-6H-quinazolin-5-one], for which the pIC50 is above 6.00.
Same read-out and setting: as for `Cc1nc(N)nc2c1C(=O)CC(c1ccc(F)cc1OC1CCCC1C)C2` (centres unmarked) [Compound 268, 2-amino-7-[4-fluoro-2-(2-methyl-cyclopentyloxy)-phenyl]-4-methyl-7,8-dihydro-6H-quinazolin-5-one], the figure is above 6.00.
Still for that read-out and setting: the result for `Cc1nc(N)nc2c1C(=O)CC(c1nccn1-c1ccccc1F)C2` (centres unmarked) [Compound 188, 2-amino-7-[1-(2-fluoro-phenyl)-1H-imidazol-2-yl]-4-methyl-7,8-dihydro-6H-quinazolin-5-one] reads above 6.00.
For `COc1nc(-n2ccnc2[C@@H]2CC(=O)c3c(C)nc(N)nc3C2)ncc1C` [Compound 208, (S)-2-amino-7-[1-(4-methoxy-5-methyl-pyrimidin-2-yl)-1H-imidazol-2-yl]-4-methyl-7,8-dihydro-6H-quinazolin-5-one], the pIC50 is above 6.00.
The same measure, in the same setting: the result for `COc1cccc(-c2ccc(F)cc2C2CC(=O)c3c(C)nc(N)nc3C2)n1` (centres unmarked) [Compound 283, 2-amino-7-[5-fluoro-2-(6-methoxy-pyridin-2-yl)-phenyl]-4-methyl-7,8-dihydro-6H-quinazolin-5-one] reads above 6.00.
Still for that read-out and setting: as for `COc1cccc(-n2ccnc2C2CC(=O)c3c(C)nc(N)nc3C2)c1` (centres unmarked) [Compound 190, 2-amino-7-[1-(3-methoxy-phenyl)-1H-imidazol-2-yl]-4-methyl-7,8-dihydro-6H-quinazolin-5-one], the figure is 5.00 to 6.00; as for `COc1nc(-c2cc(F)ccc2[C@H]2CC(=O)c3c(C)nc(N)nc3C2)ncc1F` [Compound 229, (R)-2-amino-7-[4-fluoro-2-(5-fluoro-4-methoxy-pyrimidin-2-yl)-phenyl]-4-methyl-7,8-dihydro-6H-quinazolin-5-one], 5.00 to 6.00; as for `Cc1nc(N)nc2c1C(=O)CC(c1ccccc1S(=O)(=O)C(C)(C)C)C2` (centres unmarked) [Compound 182, 2-amino-4-methyl-7-[2-(2-methyl-propane-2-sulfonyl)-phenyl]-7,8-dihydro-6H-quinazolin-5-one], above 6.00.
For `Nc1nc(CCc2ccccc2)c2c(n1)CC(c1ccccc1)CC2=O` (centres unmarked) [Compound 305, 2-amino-4-phenethyl-7-phenyl-7,8-dihydro-6H-quinazolin-5-one], the pIC50 is below 5.00.
